Measured values published in the NIST ThermoML archive (doi:10.1021/je9007662).
± gives the expanded uncertainty stated by the source.

Assay: mean ionic activity coefficient (dimensionless); mn = molality of the nth substance listed, in mol/kg
Conditions: 298.15 K, 101 kPa, Liquid

[Br-].[Cs+] [cesium bromide] + O
mean ionic activity coefficient (m1 = 0.1): 0.75 ± 0.001 | mean ionic activity coefficient (m1 = 0.2): 0.689 ± 0.001 | mean ionic activity coefficient (m1 = 0.3): 0.652 ± 0.001 | mean ionic activity coefficient (m1 = 0.4): 0.625 ± 0.001 | mean ionic activity coefficient (m1 = 0.5): 0.604 ± 0.001 | mean ionic activity coefficient (m1 = 0.6): 0.587 ± 0.001 | mean ionic activity coefficient (m1 = 0.7): 0.573 ± 0.001 | mean ionic activity coefficient (m1 = 0.8): 0.561 ± 0.001 | mean ionic activity coefficient (m1 = 0.9): 0.551 ± 0.001 | mean ionic activity coefficient (m1 = 1): 0.542 ± 0.001 | mean ionic activity coefficient (m1 = 1.2): 0.526 ± 0.001 | mean ionic activity coefficient (m1 = 1.4): 0.514 ± 0.001 | mean ionic activity coefficient (m1 = 1.6): 0.504 ± 0.001 | mean ionic activity coefficient (m1 = 1.8): 0.495 ± 0.001 | mean ionic activity coefficient (m1 = 2): 0.488 ± 0.001 | mean ionic activity coefficient (m1 = 2.5): 0.475 ± 0.001 | mean ionic activity coefficient (m1 = 3): 0.466 ± 0.001 | mean ionic activity coefficient (m1 = 3.5): 0.461 ± 0.001 | mean ionic activity coefficient (m1 = 4): 0.46 ± 0.001 | mean ionic activity coefficient (m1 = 4.5): 0.46 ± 0.001 | mean ionic activity coefficient (m1 = 5): 0.463 ± 0.001
